Test results taken from ChEMBL document CHEMBL3880385, “2-Iminoisoindolinone derivatives as thrombin receptor antagonists” (2011).
Where a name gives a salt, the structure may show the parent alone.

Assay: Antiproliferative activity against thrombin-induced […] smooth muscle cells isolated from Sprague-Dawley rat aorta after 2 days by MTT assay
Type: functional
Details: VSMC, 48 h

Structure (SMILES)	IC50
CCOc1cc2c(c(F)c1OCC)C(=N)N(CC(=O)c1cc(N3CCOCC3)c(OC)c(C(C)(C)C)c1)C2 [ATOPAXAR HYDROBROMIDE]	32 nM
CCOc1cc2c(c(F)c1OCC)C(=N)N(CC(=O)c1cc(N3CCC(O)CC3)c(OC)c(C(C)(C)C)c1)C2	23 nM
CCOc1cc2c(c(F)c1OCC)C(=N)N(CC(=O)c1cc(N3CCN(CC#N)CC3)c(OC)c(C(C)(C)C)c1)C2	75 nM
CCOc1cc2c(c(F)c1OCC)C(=N)N(CC(=O)c1cc(N3CCN(CC(=O)O)CC3)c(OC)c(C(C)(C)C)c1)C2	150 nM
CCOc1cc2c(c(F)c1OCC)C(=N)N(CC(=O)c1cc(N3CCNCC3)c(OC)c(C(C)(C)C)c1)C2	52 nM
